Measured values reported in PubChem BioAssay (NCI).
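All cell lines were grown in 96-well plates and treated with compound for 48 hours. TGI marks complete inhibition of growth.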

Tests used:
Test in all cases: inhibition of tumour cell growth, NCI panel, 48 h
MALME-3M melanoma = system: MALME-3M melanoma
HL-60(TB) leukemia = system: HL-60(TB) leukemia
TK-10 renal = system: TK-10 renal
DMS 273 small cell lung = system: DMS 273 small cell lung
HT29 colon = system: HT29 colon
KM12 colon = system: KM12 colon
EKVX NSCLC = system: EKVX NSCLC
UACC-257 melanoma = system: UACC-257 melanoma
HCT-15 colon = system: HCT-15 colon
NCI-H23 lung = system: NCI-H23 lung
LXFL 529 NSCLC = system: LXFL 529 NSCLC
NCI-H226 lung = system: NCI-H226 lung
HCC-2998 colon = system: HCC-2998 colon
DLD-1 colon = system: DLD-1 colon
SK-MEL-2 melanoma = system: SK-MEL-2 melanoma
M14 melanoma = system: M14 melanoma
RXF 393 renal = system: RXF 393 renal
XF 498 CNS = system: XF 498 CNS
SNB-78 CNS = system: SNB-78 CNS
K-562 leukemia = system: K-562 leukemia
SW-620 colon = system: SW-620 colon
LOX IMVI melanoma = system: LOX IMVI melanoma
SF-268 CNS = system: SF-268 CNS
DMS 114 small cell lung = system: DMS 114 small cell lung
M19-MEL melanoma = system: M19-MEL melanoma
CCRF-CEM leukemia = system: CCRF-CEM leukemia
786-0 renal = system: 786-0 renal
OVCAR-5 ovarian = system: OVCAR-5 ovarian
SK-OV-3 ovarian = system: SK-OV-3 ovarian
SN12C renal = system: SN12C renal
SNB-75 CNS = system: SNB-75 CNS
A498 renal = system: A498 renal
NCI-H460 lung = system: NCI-H460 lung
UO-31 renal = system: UO-31 renal
HOP-62 NSCLC = system: HOP-62 NSCLC
SK-MEL-28 melanoma = system: SK-MEL-28 melanoma
HCT-116 colon = system: HCT-116 colon
OVCAR-8 ovarian = system: OVCAR-8 ovarian
UACC-62 melanoma = system: UACC-62 melanoma
ACHN renal = system: ACHN renal
OVCAR-4 ovarian = system: OVCAR-4 ovarian
SF-295 CNS = system: SF-295 CNS
SK-MEL-5 melanoma = system: SK-MEL-5 melanoma
U251 CNS = system: U251 CNS
KM20L2 colon = system: KM20L2 colon
SF-539 CNS = system: SF-539 CNS
RPMI-8226 leukemia = system: RPMI-8226 leukemia
MOLT-4 leukemia = system: MOLT-4 leukemia
OVCAR-3 ovarian = system: OVCAR-3 ovarian
A549 NSCLC = system: A549 NSCLC
SR leukemia = system: SR leukemia
COLO 205 colon = system: COLO 205 colon
IGROV1 ovarian = system: IGROV1 ovarian
SNB-19 CNS = system: SNB-19 CNS
NCI-H522 lung = system: NCI-H522 lung
CAKI-1 renal = system: CAKI-1 renal
HOP-18 NSCLC = system: HOP-18 NSCLC
HOP-92 NSCLC = system: HOP-92 NSCLC

Measured: TGI

O=c1/c(=C/c2cccc([N+](=O)[O-])c2)sc2nc3ccccc3n12
not listed: SF-295 CNS | SK-MEL-5 melanoma | U251 CNS | KM20L2 colon | SF-539 CNS | RPMI-8226 leukemia | MOLT-4 leukemia | OVCAR-3 ovarian | A549 NSCLC | SR leukemia | COLO 205 colon | IGROV1 ovarian | SNB-19 CNS | NCI-H522 lung | CAKI-1 renal | HOP-18 NSCLC | HOP-92 NSCLC
> 100 µM: all other assays above

COC(=O)CCCN(C)c1n[nH]c(N)n1
not listed: MALME-3M melanoma | SK-MEL-2 melanoma | XF 498 CNS | A498 renal | NCI-H522 lung | CAKI-1 renal | HOP-18 NSCLC | HOP-92 NSCLC
> 100 µM: all other assays above

O=c1cccccc1NCCOCCNc1cccccc1=O
not listed: RXF 393 renal | XF 498 CNS | SF-539 CNS | SR leukemia | HOP-92 NSCLC
> 100 µM: all other assays above

O=C(O)C(CP(=O)(O)O)=C(Cl)Cl
not listed: KM12 colon | DLD-1 colon | M14 melanoma | K-562 leukemia | DMS 114 small cell lung | A498 renal | OVCAR-4 ovarian | SK-MEL-5 melanoma | NCI-H522 lung | CAKI-1 renal
> 100 µM: all other assays above
